Values quoted from earlier work, collected in patent US7189730B2, “A2A adenosine receptor antagonists” (CV Therapeutics, Inc., priority 2001, dated 2007).

Key:
[1] = tested on: haloperidol-induced catalepsy; conditions: rat; Mandhane et al. 1997
[2] = tested on: experimentally induced cataleptic responses; conditions: in vivo

N[C@@H](Cc1ccc(O)c(O)c1)C(=O)O [L-DOPA]
effect on haloperidol-induced catalepsy [1]: block

Cn1c(=O)c2[nH]cnc2n(C)c1=O [theophylline]
improvement of symptoms in Parkinson's patients (Parkinson's patients): significant improvement of symptoms

CCCn1c(=O)c2c(nc(/C=C/c3ccc(OC)c(OC)c3)n2C)n(CCC)c1=O [KF 17837]
effect on experimentally induced cataleptic responses [2]: ameliorates
